Measured values reported in article PMC3914206.

Columns and labels:
Format in all cases: binding
Conditions in all cases: Compound Concentration 10 µM
[1] = target: T1, panel of 442 kinases (Homo sapiens, UniProt P42336, I800L)
T1 construct: purchased KINOMEscan
Source text: (§1) We assessed the selectivity of members of this scaffold using the KINOMEscan methodology across a near comprehensive panel of 442 kinases [[18,27]].

[2] = target: T2, panel of 442 kinases (Homo sapiens, UniProt Q00536)
T2 construct: purchased KINOMEscan
T2 sequence (Q00536 whole entry): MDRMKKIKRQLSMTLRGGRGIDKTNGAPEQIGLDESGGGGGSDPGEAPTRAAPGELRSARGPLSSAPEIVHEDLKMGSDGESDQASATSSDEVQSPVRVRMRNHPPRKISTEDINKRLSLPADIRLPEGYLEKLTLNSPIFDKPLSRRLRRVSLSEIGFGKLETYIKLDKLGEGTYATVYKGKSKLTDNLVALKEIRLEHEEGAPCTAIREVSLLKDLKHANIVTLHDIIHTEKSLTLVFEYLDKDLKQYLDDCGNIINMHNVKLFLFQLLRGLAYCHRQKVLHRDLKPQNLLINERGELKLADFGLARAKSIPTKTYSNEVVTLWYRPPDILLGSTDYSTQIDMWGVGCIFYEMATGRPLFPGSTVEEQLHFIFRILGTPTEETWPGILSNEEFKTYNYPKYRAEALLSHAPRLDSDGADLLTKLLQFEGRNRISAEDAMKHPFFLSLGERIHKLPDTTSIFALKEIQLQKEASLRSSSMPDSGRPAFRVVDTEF
Source text: as §1

[3] = target: T3, panel of 442 kinases (Homo sapiens, UniProt Q14164)
T3 construct: purchased KINOMEscan
T3 sequence (Q14164 1-716): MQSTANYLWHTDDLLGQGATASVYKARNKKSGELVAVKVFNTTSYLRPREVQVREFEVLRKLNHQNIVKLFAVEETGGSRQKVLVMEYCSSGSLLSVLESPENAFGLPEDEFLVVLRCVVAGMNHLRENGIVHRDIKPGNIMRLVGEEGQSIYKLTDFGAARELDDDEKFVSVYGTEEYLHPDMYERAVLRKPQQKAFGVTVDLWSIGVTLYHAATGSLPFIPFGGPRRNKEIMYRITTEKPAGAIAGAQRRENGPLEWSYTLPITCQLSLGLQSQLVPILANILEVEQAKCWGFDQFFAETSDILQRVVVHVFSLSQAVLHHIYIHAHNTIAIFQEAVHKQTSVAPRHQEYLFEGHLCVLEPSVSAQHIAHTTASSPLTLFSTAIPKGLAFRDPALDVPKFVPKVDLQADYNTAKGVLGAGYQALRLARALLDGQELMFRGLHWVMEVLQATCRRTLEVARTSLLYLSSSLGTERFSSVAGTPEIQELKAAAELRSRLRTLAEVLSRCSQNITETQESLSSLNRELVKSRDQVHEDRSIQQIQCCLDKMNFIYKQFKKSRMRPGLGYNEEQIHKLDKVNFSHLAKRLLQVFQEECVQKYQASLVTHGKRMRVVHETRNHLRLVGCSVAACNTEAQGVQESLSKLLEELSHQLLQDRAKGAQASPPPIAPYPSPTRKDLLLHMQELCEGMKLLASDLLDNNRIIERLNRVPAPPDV
Source text: as §1

T1 sequence (P42336 whole entry I800L): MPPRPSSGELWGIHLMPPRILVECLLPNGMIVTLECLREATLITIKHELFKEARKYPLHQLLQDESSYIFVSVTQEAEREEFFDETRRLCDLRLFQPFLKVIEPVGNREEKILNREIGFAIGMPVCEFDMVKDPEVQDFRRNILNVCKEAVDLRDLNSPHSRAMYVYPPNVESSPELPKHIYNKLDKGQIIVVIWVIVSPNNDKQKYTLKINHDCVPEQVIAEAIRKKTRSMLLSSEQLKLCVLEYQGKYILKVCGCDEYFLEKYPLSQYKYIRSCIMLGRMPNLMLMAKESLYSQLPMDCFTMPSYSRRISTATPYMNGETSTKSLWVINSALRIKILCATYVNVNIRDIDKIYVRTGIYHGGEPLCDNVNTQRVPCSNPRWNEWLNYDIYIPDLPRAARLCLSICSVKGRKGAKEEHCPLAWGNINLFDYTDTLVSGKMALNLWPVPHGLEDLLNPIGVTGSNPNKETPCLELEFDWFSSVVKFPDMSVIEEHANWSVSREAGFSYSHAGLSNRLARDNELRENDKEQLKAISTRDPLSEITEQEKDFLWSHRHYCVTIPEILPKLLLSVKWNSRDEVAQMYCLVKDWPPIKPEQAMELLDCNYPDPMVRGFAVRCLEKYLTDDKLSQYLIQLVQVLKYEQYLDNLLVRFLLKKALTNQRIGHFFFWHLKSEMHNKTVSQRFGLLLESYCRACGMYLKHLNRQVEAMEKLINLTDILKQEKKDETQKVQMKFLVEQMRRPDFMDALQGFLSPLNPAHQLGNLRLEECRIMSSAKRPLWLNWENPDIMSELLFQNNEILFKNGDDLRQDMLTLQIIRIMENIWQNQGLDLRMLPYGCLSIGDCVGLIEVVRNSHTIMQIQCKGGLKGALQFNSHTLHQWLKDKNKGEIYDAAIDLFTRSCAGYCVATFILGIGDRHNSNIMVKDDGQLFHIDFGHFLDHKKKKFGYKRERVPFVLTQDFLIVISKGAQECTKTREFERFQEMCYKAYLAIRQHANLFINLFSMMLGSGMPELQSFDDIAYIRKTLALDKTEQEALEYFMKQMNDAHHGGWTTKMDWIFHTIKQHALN

Row | Structure (SMILES) | KINOMEscan: PIK3CA(I800L) [1] | KINOMEscan: PCTK1 [2] | KINOMEscan: IKK-epsilon [3]
1 | COc1cc(C(=O)N2CCC(N3CCN(C)CC3)CC2)ccc1Nc1ncc2c(n1)N(C1CCCC1)c1ccccc1C(=O)N2C [Compound 25, 11-cyclopentyl-2-((2-methoxy-4-(4-(4-methylpiperazin-1-yl)piperidine-1-carbonyl)phenyl)amino)-5-methyl-5H-benzo[e]pyrimido[5,4-b][1,4]diazepin-6(11H)-one] | 100 | 100 | 100
2 | CCOc1cc(C(=O)N2CCC(N3CCN(C)CC3)CC2)ccc1Nc1ncc2c(n1)N(C1CCCC1)c1ccccc1C(=O)N2C [Compound 26] | 75 | 100 | 100
3 | COc1cc(C(=O)N2CCC(N3CCN(C)CC3)CC2)ccc1Nc1ncc2c(n1)N1CCc3cccc(c31)C(=O)N2C [Compound 24] | 64 | – | –
4 | COc1cc(C(=O)N2CCC(N3CCN(C)CC3)CC2)ccc1Nc1ncc2c(n1)N(C)c1ccccc1C(=O)N2C [15 (LRRK2-IN-1)] | 38 | 96 | 96
